Source: ChEMBL document CHEMBL1201862, “PubChem BioAssay data set” (2004)
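1) Cells in 96-well plates. 2) Compound, 48 h, 5 concentrations. 3) Linear interpolation between surrounding doses. 4) Unreached endpoint = highest concentration. GI50: concentration for 50% inhibition of growth.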 The source made the active and inactive calls. Rule as the data show it: active = GI50 up to about 1.1 µM and inactive = higher.

Key:
Assay in all cases: NCI anticancer screen, dose series, 48 h
T47D = test system: T47D
MDA-MB-435 = test system: MDA-MB-435
Hs-578T = test system: Hs-578T
MDA-MB-231 = test system: MDA-MB-231
PC-3 = test system: PC-3
LXFL 529 = test system: LXFL 529
HOP-18 = test system: HOP-18
RXF 631 = test system: RXF 631
786-0 = test system: 786-0

Measured: GI50

c1ccc(CSC2(SCc3ccccc3)CCCC2)cc1
inactive: T47D > 10 µM | MDA-MB-435 > 10 µM | Hs-578T 6.97 µM | MDA-MB-231 > 10 µM | PC-3 > 10 µM

CC1(C)OP23(NC(=O)OC2(C(F)(F)F)c2ccccc2O3)OC1(C)C (centres undefined)
inactive: LXFL 529 > 100 µM | HOP-18 > 100 µM

C[Si](C)(C)/C=C/CN1C(=O)CCC1=O
inactive: LXFL 529 > 100 µM | HOP-18 40.1 µM

COc1nc(SC)nc2c1cnn2C1OC(C(O)CO)C(OC)C1O (centres undefined)
inactive: HOP-18 > 100 µM

COc1cc(C2C(C(=O)O)=C(CO)Oc3cc4c(cc32)OCO4)cc(OC)c1O (centres undefined)
inactive: HOP-18 > 100 µM

c1ccc(C(NC2=NCCO2)c2ccccc2)cc1
inactive: T47D > 10 µM | MDA-MB-435 > 10 µM | Hs-578T > 10 µM | MDA-MB-231 > 10 µM | PC-3 > 10 µM

O=c1[nH]c(=O)n(C2CC(O)C(CO)O2)cc1C(OCC(F)(F)F)OCC(F)(F)F (centres undefined)
inactive: RXF 631 > 100 µM | LXFL 529 > 100 µM | 786-0 > 100 µM

Cc1nc2ccccc2n1C(=O)c1c(F)c(F)c(F)c(F)c1F
inactive: T47D 59.8 µM | MDA-MB-435 4.99 µM | Hs-578T 26.5 µM | MDA-MB-231 16.2 µM | PC-3 17.5 µM

CN(C)C(=S)/N=c1\ssc(=S)n1C
inactive: RXF 631 > 100 µM | LXFL 529 > 100 µM | 786-0 > 100 µM | HOP-18 > 100 µM

O=C(NN1C(=O)CS(=O)(=O)C1c1ccc(Cl)c(Cl)c1)c1ccncc1 (centres undefined)
inactive: HOP-18 > 100 µM

CC(=O)OC(OC(C)=O)n1cc(C=O)c2ccccc21
inactive: T47D > 100 µM | Hs-578T > 100 µM | MDA-MB-231 > 100 µM | PC-3 > 100 µM

ClCC1(CCl)COC1
inactive: T47D > 100 µM | MDA-MB-435 > 100 µM | Hs-578T > 100 µM | MDA-MB-231 > 100 µM | PC-3 > 100 µM

C[N+](C)([O-])CCOc1cc2c(c3ccccc13)-c1ccccc1C2=O
inactive: HOP-18 29.1 µM

Cc1cc(C)n(C(=C(C(Cl)=C(Cl)Cl)[N+](=O)[O-])n2nc(C)cc2C)n1
inactive: T47D 4.05 µM | MDA-MB-435 2.19 µM | Hs-578T 4.66 µM | MDA-MB-231 7.41 µM | PC-3 4.43 µM

CN(/N=C1\C(=O)Nc2ccccc21)c1ccccc1
inactive: T47D 34.7 µM | MDA-MB-435 > 100 µM | Hs-578T 29.6 µM | MDA-MB-231 9.4 µM | PC-3 45.4 µM

CN(C)CCNC(=O)c1cccc2ccc(-c3ccc(F)cc3)nc12
inactive: HOP-18 17.4 µM

Cc1cnc(/N=c2\sc(C)cn2-c2ncc(C)s2)s1
inactive: T47D > 100 µM | MDA-MB-435 > 100 µM | Hs-578T > 100 µM | MDA-MB-231 > 100 µM | 786-0 > 100 µM | PC-3 > 100 µM

N#C/N=N/c1cc(Cl)c(/N=N/C#N)cc1Cl
inactive: LXFL 529 28.3 µM

CC(=O)C1CC[C@@H]2[C@H](CC[C@]3(C)[C@@H](O)CC[C@@H]23)[C@H]1C(=O)O (some centres undefined)
inactive: MDA-MB-435 > 100 µM | Hs-578T 74.1 µM | MDA-MB-231 > 100 µM | PC-3 > 100 µM

COC(=O)c1cn(CC(O)CCl)nn1 (centres undefined)
inactive: T47D > 100 µM | MDA-MB-435 > 100 µM | Hs-578T > 100 µM | MDA-MB-231 > 100 µM | PC-3 > 100 µM

CC(=O)OCC1OC(n2c3c(c(-c4ccco4)c(C#N)c2=S)CCC3)C(OC(C)=O)C(OC(C)=O)C1OC(C)=O (centres undefined)
inactive: MDA-MB-435 68.9 µM | Hs-578T 40.9 µM | 786-0 49.7 µM | PC-3 49.7 µM

O=C(O)C12CCCCC1CCCC2 (centres undefined)
inactive: LXFL 529 > 100 µM | HOP-18 > 100 µM

COc1c(Br)cc(CC(N)=O)c(O)c1Br
inactive: RXF 631 > 100 µM | HOP-18 > 100 µM
